Values after ≈ are worked out from the molar mass of the structure shown.
Experiments:
[1] = Cytotoxicity against human WPMY-1 cells assessed as reduction in cell viability measured for 48 hrs by resazurin dye based assay; type: toxicity
Pseudomonas aeruginosa = experiment: Antibacterial activity against Pseudomonas aeruginosa ATCC 27853 assessed as bacterial growth inhibition resazurin dye based microplate analysis; type: functional
Staphylococcus aureus [2] = experiment: Antibacterial activity against methicillin-resistant Staphylococcus aureus ATCC 43300 assessed as bacterial growth inhibition resazurin dye based microplate analysis; type: functional
PC-3 = experiment: Cytotoxicity against human PC-3 cells assessed as reduction in cell viability measured for 48 hrs by resazurin dye based assay; type: functional; settings: PC-3, 48 h
Staphylococcus aureus [3] = experiment: Antibacterial activity against methicillin-sensitive Staphylococcus aureus ATCC 25923 assessed as bacterial growth inhibition resazurin dye based microplate analysis; type: functional

SMILES	IC50 at 48 h [1] [µM]	MIC90 (Pseudomonas aeruginosa) [µg/mL]	MIC90 (Staphylococcus aureus [2]) [µg/mL]	IC50 (PC-3) [µM]	MIC90 (Staphylococcus aureus [3]) [µg/mL]
CCCCCCCCCC(=O)N(C)CCCNCCCNCCCNCCCCNCCCNCCCNCCCN(C)C(=O)CCCCCCCC(C)C	4.1	64 (≈ 81.9 µM)	32 (≈ 41 µM)	4.1	32 (≈ 41 µM)
CCCCCCCCCC(=O)N(C)CCCNCCCNCCCNCCCCNCCCNCCCNCCCN(C)C(=O)CCCCCCC(C)C	4.3	32 (≈ 41.7 µM)	16 (≈ 20.9 µM)	3.4	8 (≈ 10.4 µM)
COc1cccc2c1C(=O)c1c(O)c3c(c(O)c1C2=O)C[C@@](O)(C(=O)CO)C[C@@H]3O[C@H]1C[C@H](N)[C@H](O)[C@H](C)O1 [DOXORUBICIN]	0.7			0.6	
CC[C@H]1OC(=O)[C@H](C)[C@@H](O[C@H]2C[C@@](C)(OC)[C@@H](O)[C@H](C)O2)[C@H](C)[C@@H](O[C@@H]2O[C@H](C)C[C@H](N(C)C)[C@H]2O)[C@](C)(O)C[C@@H](C)C(=O)[C@H](C)[C@@H](O)[C@]1(C)O [ERYTHROMYCIN]					2 (≈ 2.73 µM)
CC(=O)O[C@H]1C[C@@]2(C)[C@@H](C[C@@H](O)[C@H]3[C@@]4(C)CC[C@@H](O)[C@@H](C)[C@@H]4CC[C@@]32C)/C1=C(\CCC=C(C)C)C(=O)O [FUSIDIC ACID]			0.25 (≈ 0.484 µM)		
NC[C@H]1O[C@H](O[C@H]2[C@H](O)[C@@H](O[C@H]3O[C@H](CO)[C@@H](O)[C@H](N)[C@H]3O)[C@H](N)C[C@@H]2N)[C@H](N)C[C@@H]1O [TOBRAMYCIN]		1 (≈ 2.14 µM)			
